According to ChEMBL document CHEMBL5537181 (J Med Chem, 2024):
Active and inactive are the calls of the source.

Columns and labels:
Assay type in all cases: functional, organism-based
Rattus norvegicus [1] = test: Analgesic activity in Chronic constriction injury rat model assessed as increase in paw withdrawal latency at 30 mg/kg,po administration and measured for 0.5 to 48 hrs; settings: time 0.5-48 hrs
Rattus norvegicus [2] = test: Analgesic activity in Chronic constriction injury rat model assessed as increase in paw withdrawal threshold at 30 mg/kg,po administration and measured for 0.5 to 48 hrs; settings: time 0.5-48 hrs
Rattus norvegicus [3] = test: Antinociceptive activity in Chronic constriction injury rat model assessed as reduction in pain at 5 mg/kg,IM administration and measured after 12 hrs
Rattus norvegicus [4] = test: Analgesic activity in Chronic constriction injury rat model assessed as increase in paw withdrawal latency at 5 mg/kg,IM administration and measured for 0.5 to 48 hrs; settings: time 0.5-48 hrs
Rattus norvegicus [5] = test: Antinociceptive activity in Chronic constriction injury rat model assessed as reduction in pain at 5 mg/kg,IM administration and measured after 2 hrs
Rattus norvegicus [6] = test: Analgesic activity in Chronic constriction injury rat model assessed as increase in paw withdrawal threshold at 5 mg/kg,IM administration and measured for 0.5 to 48 hrs; settings: time 0.5-48 hrs

Measured: Activity

CC(C)C[C@H](CN)CC(=O)O
active: Rattus norvegicus [1] | Rattus norvegicus [2]

CN1CC[C@]23c4c5ccc(O)c4O[C@H]2[C@@H](O)C=C[C@H]3[C@H]1C5
active: Rattus norvegicus [3] | Rattus norvegicus [4] | Rattus norvegicus [5] | Rattus norvegicus [6]
